Test results reported in US20130018062A1, “Pain therapy with metabolism blocked antifolates” (priority 2011, published 2013).
Where two headings read alike, the source gives them in different places.

Tests used:
CAKI-1 (Renal Cancer) = test: Growth inhibition of human tumor cells in culture (NCI); assay type: cell-based
Text: (§1) The preceding data collected at the National Cancer Institute summarize the ability of M-Trex to inhibit 50% of the growth of selected tumor cells in culture. The values are expressed as Log10 GI50 values all of which are lower than 10^−8M. In the same table a comparison is made of the respective values of TGI (Total Growth Inhibition) for M-Trex and MTX. […] In addition, the Log10 GI50 values of M-Trex was lower than −8.00 for the following cell lines: NSCLC, A549/ATCC and NCI H23; Colon Cancer, HCT 116, HCT 29 and SW 620; CNS Cancer, SF 268; Melanoma M 14 and UACC 62; Ovarian Cancer, OVCAR-8; Renal Cancer, ACHN, CAKI-1, SN 12C, and UO 31; Prostate Cancer, PC 3 and Breast cancer, MDA-MB-435 and MDA-N. The MG_MID value of MTX for all 49 human tumor cell lines evaluated at NCI-DTP program was −7.05. […] The tumors and sarcomas are solid while leukemia and lymphoma are liquid tumors.

[1] = system: MCF7-ADR-RES (Breast Cancer); test: as above; assay type: cell-based
Text: as §1

SF 268 (CNS Cancer) = test: as above; assay type: cell-based
Text: as §1

UACC 62 (Melanoma) = test: as above; assay type: cell-based
Text: as §1

RPMI 8226 (Leukemia) = test: as above; assay type: cell-based; conditions: logarithmic value
Text: as §1

MOLT-4 (Leukemia) = test: as above; assay type: cell-based; conditions: logarithmic value
Text: as §1

OVCAR-8 (Ovarian Cancer) = test: as above; assay type: cell-based
Text: as §1

UO 31 (Renal Cancer) = test: as above; assay type: cell-based
Text: as §1

ACHN (Renal Cancer) = test: as above; assay type: cell-based
Text: as §1

PC 3 (Prostate Cancer) = test: as above; assay type: cell-based
Text: as §1

HCT 29 (Colon Cancer) = test: as above; assay type: cell-based
Text: as §1

HCT 116 (Colon Cancer) = test: as above; assay type: cell-based
Text: as §1

SR (Leukemia) = test: as above; assay type: cell-based; conditions: logarithmic value
Text: as §1

SF 539 (CNS Cancer) = test: as above; assay type: cell-based; conditions: logarithmic value
Text: as §1

A549/ATCC (NSCLC) = test: as above; assay type: cell-based
Text: as §1

M 14 (Melanoma) = test: as above; assay type: cell-based
Text: as §1

NCI H23 (NSCLC) = test: as above; assay type: cell-based
Text: as §1

CCRF-CEM (Leukemia) = test: as above; assay type: cell-based
Text: as §1

[2] = system: MDA-MB-435 (Breast cancer); test: as above; assay type: cell-based
Text: as §1

MCF-7 (Breast Cancer) = test: as above; assay type: cell-based; conditions: logarithmic value
Text: as §1

SN 12C (Renal Cancer) = test: as above; assay type: cell-based
Text: as §1

Allergic Rabbits = conditions: allergen induced; cited from earlier work
C-Reactive Protein (CRP) = system: C-Reactive Protein (CRP); set-up: unit not given here; conditions: RA patients on therapy with M-Trex, cited from earlier work
[3] = Toxicity (maximum tolerated dose, weight loss) in nude mice bearing HCT-8 xenograft; assay type: in vivo; conditions: i.v. push daily × 5 in nude mice
[4] = system: Human HCT-8 Colon Xenograft; test: Antitumor activity in nude mice bearing human HCT-8 colon xenograft (Example-4); assay type: in vivo; conditions: i.v. push daily × 5 at maximum tolerated dose (M-Trex 4.0, MTX 1.0 mg/kg/day)
Text: There are three general accepted methods for the evaluation of Pain in patients suffering from a number of diseases. They are Visual Analog Scale (VAS); Numeric rating Scale (NRS) and Verbal Categorical Rating Scale […]. Of these three assessment methods VAS is considered to be most reliable in a majority of cases to evaluate and quantify the magnitude of the perception of Pain. Clinical trials conducted by Castaneda and Nair used VAS to assess pain intensity in RA patients receiving 10-DAAM in one trial [G. Alarcon, O. Castaneda, W. J. Koopman, C. L. Krumdieck, and M. G. Nair. U.S. Pat. No. 5,030,634 (1991)] and M-Trex (CH-1504) in another trial conducted separately. Almost all cases of cancer Pain is due to tissue inflammation, tissue compression and tissue damage secondary to rapid proliferation of cells. Therefore any therapeutic intervention that shrinks proliferating tissues can bring about significant reduction in Pain. Shown below is the efficacy of M-Trex in shrinking human colon cancer transplanted and growing in nude mice.

Structure (SMILES): C=C(CC(NC(=O)c1ccc(CCc2ccc3nc(N)nc(N)c3c2)cc1)C(=O)O)C(=O)O (stereo not shown) [M-Trex, 4′-methylene-5,8-10-trideazaaminopterin]
- Log10 GI50 (CAKI-1 (Renal Cancer)): lower than −8.00
- TGI (Total Growth Inhibition) ([1]; logarithmic value): −7.26
- Log10 GI50 ([1]; value is Log10 of GI50): <−8.00 M
- Log10 GI50 (SF 268 (CNS Cancer)): lower than −8.00
- Log10 GI50 (UACC 62 (Melanoma)): lower than −8.00
- TGI (Total Growth Inhibition) (RPMI 8226 (Leukemia)): −7.44
- TGI (Total Growth Inhibition) (MOLT-4 (Leukemia)): −7.40
- Log10 GI50 (OVCAR-8 (Ovarian Cancer)): lower than −8.00
- Log10 GI50 (UO 31 (Renal Cancer)): lower than −8.00
- Log10 GI50 (ACHN (Renal Cancer)): lower than −8.00
- Log10 GI50 (PC 3 (Prostate Cancer)): lower than −8.00
- Log10 GI50 (HCT 29 (Colon Cancer)): lower than −8.00
- Log10 GI50 (HCT 116 (Colon Cancer)): lower than −8.00
- TGI (Total Growth Inhibition) (SR (Leukemia)): <−8.00
- TGI (Total Growth Inhibition) (SF 539 (CNS Cancer)): −6.3
- Log10 GI50 (A549/ATCC (NSCLC)): lower than −8.00
- Log10 GI50 (M 14 (Melanoma)): lower than −8.00
- Log10 GI50 (NCI H23 (NSCLC)): lower than −8.00
- TGI (Total Growth Inhibition) (CCRF-CEM (Leukemia); logarithmic value): <−8.00
- Log10 GI50 (CCRF-CEM (Leukemia); value is Log10 of GI50): <−8.00 M
- Log10 GI50 [2]: lower than −8.00
- TGI (Total Growth Inhibition) (MCF-7 (Breast Cancer)): −6.32
- Log10 GI50 (SN 12C (Renal Cancer)): lower than −8.00
- Asthmatic Response Early (Allergic Rabbits): 52
- Asthmatic Response Late (Allergic Rabbits): 58
- BHR (Bronchial Hyper-Responsiveness) (Allergic Rabbits): 47
- Plasma CRP Levels (C-Reactive Protein (CRP); visit at 4 weeks): 22.1
- Plasma CRP Levels (C-Reactive Protein (CRP); visit at 8 weeks): 20.7
- Plasma CRP Levels (C-Reactive Protein (CRP); visit at 12 weeks): 17.7
- Plasma CRP Levels (C-Reactive Protein (CRP); visit at 16 weeks): 13.6
- Maximum Tolerated dose [3]: M-Trex (4.0 mg/kg/day)
- MTGI, Maximum Tumor Growth Inhibition (% of control) ([4]; nude mice, HCT-8 xenograft): 91.4 ± 2.2%
- Tumor doubling time, treated/control (%) ([4]; nude mice, HCT-8 xenograft): 623.08%
- TD, Tumor Doubling Time ([4]; control 2.6 ± 0.8 days): 16.2 ± 3.2 days
